2 molecules from patent publication US20250136997A1, “COMPOSITIONS FOR SEQUESTERING ISOAMYL AMINE AND METHODS OF USE THEREFOR” (University of Louisville Research Foundation, Inc., priority 2023, published 2025) can be followed below.

Series [1] in a line: Interaction of S100p1-G and metabolite: streptavidin pull-down from BV2 cells and LC-MS. It counts as cell-based, mouse. The protocol:
Interaction of S100p1-G and metabolite. Microglial BV2 cells (2×10^6) were transfected with biotinylated oligo S100p1-G or mutant using Lipofectamin RNAiMAX Reagent (Thermo Fisher) according to the manufacturer's instructions overnight at 37° C. […] of aged mouse fecal supernatant (from one-gram feces) was added into the cell growth medium. After six hours, the cells were collected in RIPA lysis buffer. […] of cell lysate was incubated with […] of DYNABEADS® Streptavidin beads (Thermo Fisher) at room temperature for 1 h. The bio-oligo complex was eluted with biotin (4 mg/ml)) in 25 mM Tris-HCL containing 0.3 M NaCl (PH 8.5) at 95° C. for 5 minutes. Metabolite analysis was performed with LC-MS.

Series [2] concerns microglia. The series can be described thus: S100A8 and cleaved caspase-3 in brain microglia of treated mice (qPCR, western blot). In kind it is in vivo, mouse. The protocol:
Isolation of microglia, neuron, astrocytes, and oligodendrocytes from the brain. Mice were anaesthetized with a mixture of ketamine (16%) and xylazine (3%) by intraperitoneal injection and then sacrificed under basal conditions by transcardial perfusion with perfusion buffer (Ca^2+/Mg^2+ free HBSS containing 0.5 mM EGTA, 10 mM HEPES and 4.2 mM NaHCO3; pH 7.2). The perfused brain was removed and gently mechanically disaggregated with tweezers in dissociation buffer (HBSS containing 10 mM HEPES and 4.2 mM NaHCO3 supplemented with Type I collagenase (0.05%), Dispase II (25 mg/ml), DNase I (2.5 mg/ml), trypsin inhibitor ([…]); pH 7.5) followed by incubation at 37° C. for 1 hour. The tissue homogenate was centrifuged at 1,350×g for 5 minutes at 4° C. […]
Quantitative Real-Time PCR (qPCR) analysis of mRNA expression. […] For analysis of gene mRNA expression, […] of total RNA was reverse transcribed by SuperScript III reverse transcriptase (Invitrogen) and quantitation was performed using primers (Eurofins) with SSOADVANCED™ Universal SYBR Green Supermix (BioRad); GAPDH was used for normalization. […] Analysis and fold-change were determined using the comparative threshold cycle (Ct) method. […] Setting the expression value of GAPDH to 1.0, the relative expression values were calculated as […]. The change in mRNA expression was calculated as fold-change. […]

Series [3] in a line: Morris water maze (MWM) test. It counts as in vivo, mouse. The protocol: Morris water maze (MWM) test. Mice were trained in a 122 cm diameter, 50 cm height open-field water maze with non-reflective interior surfaces. The pool water was filled with water maintained at 25±1° C. and mixed with non-toxic white tempera paint. Distinctive and extra-maze cues were marked on the wall at specific locations and were visible to the mice in the maze. Mice were removed from cages, placed into the water from quasi-random start points and allowed a maximum of 60 seconds to probe the escape platform. The inter interval of each trail remained for 15 seconds. For four consecutive days, four trials (training) were recorded each day with a final test on day 5 (FIG. 4A). Performance was evaluated by the mean escape latencies base on every training trial (Vorhees and Williams, 2006).

Series [4] is described as follows: HPLC analysis of IAA and CA in serum and cerebrospinal fluid (CSF) of mice. In kind it is in vivo, mouse.
The mark [5] stands for this setting: IAA to young mice, phage to aged mice, oral gavage two months.

As for `CC(C)CCN` [IAA, isoamylamine], the “metabolite within the Bio-S100p1-G complex (LC-MS)” value in series [1] (cell lysates) is listed as “only IAA interacts with S100p1-G”. In addition, the “S100A8 and cleaved caspase-3 in the microglia” value in series [2] (all five major regions of the brain, IAA oral gavage) is given as “induced”. The “swim speeds in MWM” value in series [3] (IAA (0.5 g/kg) to young mice, phage^TSD-27 (1×10^9 pfu/mouse) to aged mice, oral gavage every other day, two months) is given as “reduced”. Also, in series [3] (setting [5]), the “latency time to reach the platform in MWM” value is on record as “induced”; the “memory and learning (normalized test path length, MWM)” value was “induced the memory and learning loss”. Moreover, in series [4] (aged mice, serum and CSF, gut-derived metabolite), the “pass through the blood-brain barrier (BBB)” value is recorded as “higher amounts than CA”. The “IAA level in the serum (HPLC)” value in series [4] (young mice gavage-given IAA, aged mice gavage-given phage^TSD-27) is “increased”.
Regarding “S100p1-G: CTGTGGGCAG CTGGCCAAGC (SEQ ID NO: 8), S100A8 promoter −57 . . . −38 (DNA CTGTGGGCAGCTGGCCAAGC; chemistry not given here)”, the “IAA recruited to the oligo complex (LC-MS after pull-down)” value in series [1] (microglial cells, gut fecal supernatant, 6 h, biotinylated oligo) was “recruited”. Also, the “expression of S100A8 and cleaved caspase-3 in microglia cells (qPCR, western blot)” value in series [2] (young mice, gavage every other day for 2 months) was “prevented”. The “memory and spatial learning (MWM)” value in series [3] (aged mice, intravenous, twice a week for 2 months) was “recovered”. Besides, the “IAA in CSF (HPLC)” value in series [4] (aged mice, intravenous oligo, twice a week for 2 months) is reported as “decline”.
